# System: Blumeria graminis
# Test: The fungicidal activity (percent disease control) under greenhouse conditions against Wheat powdery mildew (Erisyphe graminis) at 200 ppm at 200 ppm; shows curative effect
# Type: functional
row,Structure (SMILES),Disease control [%]
1,Fc1ccc(-c2ccc(-c3ccccn3)nc2)cc1,55
2,COc1ccccc1-c1ccnc(-c2ccccn2)c1,93
3,c1ccc(-c2ccnc(-c3ccccn3)c2)cc1,95
4,Clc1ccc(-c2ccc(-c3ccccn3)nc2)cc1,99
5,Cc1ccc(-c2ccc(-c3ccccn3)nc2)cc1,99
6,c1ccc(-c2ccc(-c3ccccn3)nc2)cc1,100
7,Brc1ccc(-c2ccc(-c3ccccn3)nc2)cc1,19

# System: Plasmopara viticola
# Test: The fungicidal activity (percent disease control) under greenhouse conditions against Grape downy mildew (Plasmopara viticola) at 200 ppm
# Type: functional
row,Structure (SMILES),Disease control [%]
1,c1ccc(-c2ccnc(-c3ccccn3)c2)cc1,96
2,Cc1ccc(-c2ccccn2)nc1,0
3,c1ccc(-c2ccc(-c3ccccn3)nc2)cc1,96
4,O=[N+]([O-])c1ccc(-c2ccc(-c3ccccn3)nc2)cc1,60

# System: Phytophthora infestans
# Test: Fungicidal activity under greenhouse conditions against Tomato late blight (Phtyopthora infestans) at 200 ppm
# Type: functional
row,Structure (SMILES),Disease control [%]
1,CC(C)c1ccnc(-c2cc(C(C)C)ccn2)c1,0
2,Fc1ccc(-c2ccc(-c3ccccn3)nc2)cc1,24
3,CCCCc1ccnc(-c2cc(CCCC)ccn2)c1,0
4,Cc1ccnc(-c2cc(-c3ccccc3)ccn2)c1,0
5,COc1ccccc1-c1ccnc(-c2ccccn2)c1,24
6,c1ccc(-c2ccnc(-c3ccccn3)c2)cc1,0
7,Cc1ccc(-c2ccccn2)nc1,0
8,O=[N+]([O-])c1ccccc1-c1ccnc(-c2ccccn2)c1,24
9,Clc1ccc(-c2ccc(-c3ccccn3)nc2)cc1,0
10,CCCCCCCCCCCCc1ccnc(-c2cc(CCCCCCCCCCCC)ccn2)c1,0
11,COc1ccccc1-c1ccnc(-c2cc(C)ccn2)c1,0
12,Cc1ccc(-c2ccc(-c3ccccn3)nc2)cc1,0
13,COc1ccc(-c2ccc(-c3ccccn3)nc2)cc1,0
14,c1ccc(-c2ccc(-c3ccccn3)nc2)cc1,23
15,CCCCCc1ccnc(-c2cc(CCCCC)ccn2)c1,0
16,O=[N+]([O-])c1ccc(-c2ccc(-c3ccccn3)nc2)cc1,0
17,Brc1ccc(-c2ccc(-c3ccccn3)nc2)cc1,0
18,Cc1ccnc(-c2ccc(-c3ccccc3)cn2)c1,0
19,c1ccc(OCc2ccc(-c3ccccn3)nc2)cc1,0

# System: Parastagonospora nodorum
# Test: The fungicidal activity (percent disease control) under greenhouse conditions against Wheat septoria (Septoria nodorum) at 40 ppm
# Type: functional
row,Structure (SMILES),Disease control [%]
1,COc1ccccc1-c1ccnc(-c2ccccn2)c1,27

# System: Botrytis cinerea
# Test: Fungicidal activity (under greenhouse conditions against Cucumber botrytis (Botrytis cinerea) at 200 ppm
# Type: functional
row,Structure (SMILES),Disease control [%]
1,CC(C)c1ccnc(-c2cc(C(C)C)ccn2)c1,0
2,Fc1ccc(-c2ccc(-c3ccccn3)nc2)cc1,0
3,CCCCc1ccnc(-c2cc(CCCC)ccn2)c1,0
4,Cc1ccnc(-c2cc(-c3ccccc3)ccn2)c1,30
5,COc1ccccc1-c1ccnc(-c2ccccn2)c1,0
6,c1ccc(-c2ccnc(-c3ccccn3)c2)cc1,0
7,Cc1ccc(-c2ccccn2)nc1,0
8,O=[N+]([O-])c1ccccc1-c1ccnc(-c2ccccn2)c1,41
9,Clc1ccc(-c2ccc(-c3ccccn3)nc2)cc1,0
10,CCCCCCCCCCCCc1ccnc(-c2cc(CCCCCCCCCCCC)ccn2)c1,0
11,COc1ccccc1-c1ccnc(-c2cc(C)ccn2)c1,0
12,Cc1ccc(-c2ccc(-c3ccccn3)nc2)cc1,59
13,COc1ccc(-c2ccc(-c3ccccn3)nc2)cc1,0
14,c1ccc(-c2ccc(-c3ccccn3)nc2)cc1,45
15,CCCCCc1ccnc(-c2cc(CCCCC)ccn2)c1,0
16,O=[N+]([O-])c1ccc(-c2ccc(-c3ccccn3)nc2)cc1,0
17,Brc1ccc(-c2ccc(-c3ccccn3)nc2)cc1,0
18,c1ccc(OCc2ccc(-c3ccccn3)nc2)cc1,0

# System: Puccinia recondita
# Test: The fungicidal activity (percent disease control) under greenhouse conditions against Wheat leaf rust (Puccinia recondita) at 200 ppm; shows curative effect
# Type: functional
row,Structure (SMILES),Disease control [%]
1,Cc1ccc(-c2ccc(-c3ccccn3)nc2)cc1,84

# System: Pyricularia grisea
# Test: The fungicidal activity (percent disease control) under greenhouse conditions against Rice blast (Pyricularia oryzae) at 200 ppm; shows curative effect
# Type: functional
row,Structure (SMILES),Disease control [%]
1,c1ccc(-c2ccc(-c3ccccn3)nc2)cc1,87

# System: Pyricularia grisea
# Test: Fungicidal activity under greenhouse conditions against Rice blast (Pyricularia oryzae) at 200 ppm
# Type: functional
row,Structure (SMILES),Disease control [%]
1,CC(C)c1ccnc(-c2cc(C(C)C)ccn2)c1,67
2,Fc1ccc(-c2ccc(-c3ccccn3)nc2)cc1,32
3,CCCCc1ccnc(-c2cc(CCCC)ccn2)c1,85
4,Cc1ccnc(-c2cc(-c3ccccc3)ccn2)c1,53
5,COc1ccccc1-c1ccnc(-c2ccccn2)c1,32
6,c1ccc(-c2ccnc(-c3ccccn3)c2)cc1,74
7,Cc1ccc(-c2ccccn2)nc1,0
8,O=[N+]([O-])c1ccccc1-c1ccnc(-c2ccccn2)c1,32
9,Clc1ccc(-c2ccc(-c3ccccn3)nc2)cc1,97
10,CCCCCCCCCCCCc1ccnc(-c2cc(CCCCCCCCCCCC)ccn2)c1,0
11,COc1ccccc1-c1ccnc(-c2cc(C)ccn2)c1,53
12,Cc1ccc(-c2ccc(-c3ccccn3)nc2)cc1,32
13,COc1ccc(-c2ccc(-c3ccccn3)nc2)cc1,97
14,CCCCCc1ccnc(-c2cc(CCCCC)ccn2)c1,27
15,O=[N+]([O-])c1ccc(-c2ccc(-c3ccccn3)nc2)cc1,0
16,Brc1ccc(-c2ccc(-c3ccccn3)nc2)cc1,0
17,Cc1ccnc(-c2ccc(-c3ccccc3)cn2)c1,32
18,c1ccc(OCc2ccc(-c3ccccn3)nc2)cc1,0

# System: Plasmopara viticola
# Test: The fungicidal activity (percent disease control) under greenhouse conditions against Grape downy mildew (Plasmopara viticola) at 40 ppm
# Type: functional
row,Structure (SMILES),Disease control [%]
1,Clc1ccc(-c2ccc(-c3ccccn3)nc2)cc1,50
2,COc1ccc(-c2ccc(-c3ccccn3)nc2)cc1,65

# System: Blumeria graminis
# Test: The fungicidal activity (percent disease control) under greenhouse conditions against Wheat powdery mildew (Erisyphe graminis) at 40 ppm […]
# Type: functional
row,Structure (SMILES),Disease control [%]
1,Cc1ccnc(-c2ccc(-c3ccccc3)cn2)c1,47

# System: Oculimacula yallundae
# Test: Fungicidal activity under greenhouse conditions against Wheat foot rot (Pseudocercosporella herpotrichoides) at 200 ppm.
# Type: functional
row,Structure (SMILES),Disease control [%]
1,CC(C)c1ccnc(-c2cc(C(C)C)ccn2)c1,12
2,CCCCc1ccnc(-c2cc(CCCC)ccn2)c1,44
3,Cc1ccnc(-c2cc(-c3ccccc3)ccn2)c1,66
4,COc1ccccc1-c1ccnc(-c2ccccn2)c1,0
5,c1ccc(-c2ccnc(-c3ccccn3)c2)cc1,0
6,Cc1ccc(-c2ccccn2)nc1,0
7,O=[N+]([O-])c1ccccc1-c1ccnc(-c2ccccn2)c1,0
8,Clc1ccc(-c2ccc(-c3ccccn3)nc2)cc1,81
9,CCCCCCCCCCCCc1ccnc(-c2cc(CCCCCCCCCCCC)ccn2)c1,0
10,COc1ccccc1-c1ccnc(-c2cc(C)ccn2)c1,86
11,Cc1ccc(-c2ccc(-c3ccccn3)nc2)cc1,0
12,COc1ccc(-c2ccc(-c3ccccn3)nc2)cc1,75
13,c1ccc(-c2ccc(-c3ccccn3)nc2)cc1,0
14,CCCCCc1ccnc(-c2cc(CCCCC)ccn2)c1,0
15,O=[N+]([O-])c1ccc(-c2ccc(-c3ccccn3)nc2)cc1,0
16,Brc1ccc(-c2ccc(-c3ccccn3)nc2)cc1,0
17,Cc1ccnc(-c2ccc(-c3ccccc3)cn2)c1,69
18,c1ccc(OCc2ccc(-c3ccccn3)nc2)cc1,0

# System: Parastagonospora nodorum
# Test: The fungicidal activity (percent disease control) under greenhouse conditions against Wheat septoria (Septoria nodorum) at 40 ppm; shows curative effect
# Type: functional
row,Structure (SMILES),Disease control [%]
1,Fc1ccc(-c2ccc(-c3ccccn3)nc2)cc1,32
2,Cc1ccnc(-c2cc(-c3ccccc3)ccn2)c1,19
3,c1ccc(-c2ccnc(-c3ccccn3)c2)cc1,94
4,O=[N+]([O-])c1ccccc1-c1ccnc(-c2ccccn2)c1,76
5,COc1ccccc1-c1ccnc(-c2cc(C)ccn2)c1,12
6,Brc1ccc(-c2ccc(-c3ccccn3)nc2)cc1,58
7,Cc1ccnc(-c2ccc(-c3ccccc3)cn2)c1,96

# System: Parastagonospora nodorum
# Test: The fungicidal activity (percent disease control) under greenhouse conditions against Wheat septoria (Septoria nodorum) at 200 ppm
# Type: functional
row,Structure (SMILES),Disease control [%]
1,Cc1ccc(-c2ccccn2)nc1,0
2,Clc1ccc(-c2ccc(-c3ccccn3)nc2)cc1,98
3,COc1ccc(-c2ccc(-c3ccccn3)nc2)cc1,40
4,c1ccc(-c2ccc(-c3ccccn3)nc2)cc1,100
5,O=[N+]([O-])c1ccc(-c2ccc(-c3ccccn3)nc2)cc1,0
6,c1ccc(OCc2ccc(-c3ccccn3)nc2)cc1,0

# System: Blumeria graminis
# Test: The fungicidal activity (percent disease control) under greenhouse conditions against Wheat powdery mildew (Erisyphe graminis) at 40 ppm; shows curative effect
# Type: functional
row,Structure (SMILES),Disease control [%]
1,COc1ccccc1-c1ccnc(-c2cc(C)ccn2)c1,30

# System: Puccinia recondita
# Test: Fungicidal activity under greenhouse conditions against Wheat leaf rust (Puccinia recondita) at 200 ppm
# Type: functional
row,Structure (SMILES),Disease control [%]
1,Fc1ccc(-c2ccc(-c3ccccn3)nc2)cc1,64
2,CCCCc1ccnc(-c2cc(CCCC)ccn2)c1,33
3,Cc1ccnc(-c2cc(-c3ccccc3)ccn2)c1,99
4,COc1ccccc1-c1ccnc(-c2ccccn2)c1,85
5,Cc1ccc(-c2ccccn2)nc1,0
6,O=[N+]([O-])c1ccccc1-c1ccnc(-c2ccccn2)c1,67
7,Clc1ccc(-c2ccc(-c3ccccn3)nc2)cc1,65
8,COc1ccc(-c2ccc(-c3ccccn3)nc2)cc1,93
9,CCCCCc1ccnc(-c2cc(CCCCC)ccn2)c1,90
10,O=[N+]([O-])c1ccc(-c2ccc(-c3ccccn3)nc2)cc1,0
11,Brc1ccc(-c2ccc(-c3ccccn3)nc2)cc1,20
12,Cc1ccnc(-c2ccc(-c3ccccc3)cn2)c1,93
13,c1ccc(OCc2ccc(-c3ccccn3)nc2)cc1,0

# System: Botrytis cinerea
# Test: The fungicidal activity (percent disease control) under greenhouse conditions against Cucumber botrytis (Botrytis cinerea) at 40 ppm
# Type: functional
row,Structure (SMILES),Disease control [%]
1,Cc1ccnc(-c2ccc(-c3ccccc3)cn2)c1,28

# System: Puccinia recondita
# Test: The fungicidal activity (percent disease control) under greenhouse conditions against Wheat leaf rust (Puccinia recondita) at 40 ppm
# Type: functional
row,Structure (SMILES),Disease control [%]
1,COc1ccccc1-c1ccnc(-c2cc(C)ccn2)c1,19

# System: Oculimacula yallundae
# Test: The fungicidal activity (percent disease control) under greenhouse conditions against Wheat foot rot (Pseudocercosporella herpotrichoides) at 40 ppm
# Type: functional
row,Structure (SMILES),Disease control [%]
1,Fc1ccc(-c2ccc(-c3ccccn3)nc2)cc1,27

# System: Puccinia recondita
# Test: The fungicidal activity (percent disease control) under greenhouse conditions against Wheat leaf rust (Puccinia recondita) at 40 ppm; shows curative effect
# Type: functional
row,Structure (SMILES),Disease control [%]
1,c1ccc(-c2ccnc(-c3ccccn3)c2)cc1,11
2,c1ccc(-c2ccc(-c3ccccn3)nc2)cc1,60

# System: Blumeria graminis
# Test: Fungicidal activity under greenhouse conditions against Wheat powdery mildew (Erisyphe graminis) at 200 ppm at 200 ppm
# Type: functional
row,Structure (SMILES),Disease control [%]
1,CC(C)c1ccnc(-c2cc(C(C)C)ccn2)c1,38
2,CCCCc1ccnc(-c2cc(CCCC)ccn2)c1,21
3,Cc1ccnc(-c2cc(-c3ccccc3)ccn2)c1,99
4,Cc1ccc(-c2ccccn2)nc1,24
5,O=[N+]([O-])c1ccccc1-c1ccnc(-c2ccccn2)c1,0
6,CCCCCCCCCCCCc1ccnc(-c2cc(CCCCCCCCCCCC)ccn2)c1,0
7,COc1ccc(-c2ccc(-c3ccccn3)nc2)cc1,92
8,CCCCCc1ccnc(-c2cc(CCCCC)ccn2)c1,92
9,O=[N+]([O-])c1ccc(-c2ccc(-c3ccccn3)nc2)cc1,0
10,c1ccc(OCc2ccc(-c3ccccn3)nc2)cc1,11

# System: Thanatephorus cucumeris
# Test: Fungicidal activity under greenhouse conditions against Rice sheath blight (Rhizoctonia solani) at 200 ppm
# Type: functional
row,Structure (SMILES),Disease control [%]
1,CC(C)c1ccnc(-c2cc(C(C)C)ccn2)c1,73
2,Fc1ccc(-c2ccc(-c3ccccn3)nc2)cc1,100
3,CCCCc1ccnc(-c2cc(CCCC)ccn2)c1,93
4,Cc1ccnc(-c2cc(-c3ccccc3)ccn2)c1,81
5,COc1ccccc1-c1ccnc(-c2ccccn2)c1,0
6,c1ccc(-c2ccnc(-c3ccccn3)c2)cc1,0
7,Cc1ccc(-c2ccccn2)nc1,0
8,O=[N+]([O-])c1ccccc1-c1ccnc(-c2ccccn2)c1,0
9,Clc1ccc(-c2ccc(-c3ccccn3)nc2)cc1,100
10,CCCCCCCCCCCCc1ccnc(-c2cc(CCCCCCCCCCCC)ccn2)c1,0
11,COc1ccccc1-c1ccnc(-c2cc(C)ccn2)c1,81
12,Cc1ccc(-c2ccc(-c3ccccn3)nc2)cc1,0
13,COc1ccc(-c2ccc(-c3ccccn3)nc2)cc1,19
14,c1ccc(-c2ccc(-c3ccccn3)nc2)cc1,0
15,CCCCCc1ccnc(-c2cc(CCCCC)ccn2)c1,93
16,O=[N+]([O-])c1ccc(-c2ccc(-c3ccccn3)nc2)cc1,0
17,Brc1ccc(-c2ccc(-c3ccccn3)nc2)cc1,0
18,Cc1ccnc(-c2ccc(-c3ccccc3)cn2)c1,0
19,c1ccc(OCc2ccc(-c3ccccn3)nc2)cc1,0

# System: Parastagonospora nodorum
# Test: The fungicidal activity (percent disease control) under greenhouse conditions against Wheat septoria (Septoria nodorum) at 200 ppm; shows curative effect
# Type: functional
row,Structure (SMILES),Disease control [%]
1,Cc1ccc(-c2ccc(-c3ccccn3)nc2)cc1,95

# Reference: ChEMBL document CHEMBL1128660, “Synthesis and fungicidal activity of 2,2-bipyridine derivatives” (1995)
